Results as given in patent publication US10933077B2, “TLR4 inhibitors for the treatment of human infectious and inflammatory disorders” (UNIVERSITY OF PITTSBURGH—OF THE COMMONWEALTH SYSTEM OF …, priority 2010, dated 2021).

Each molecule was assayed against T1, TLR4 (Mus musculus, UniProt Q9JHF9+Q9QUK6) (assay: CFW endotoxemia assay (observation of behavior and phenotype after LPS)). Conditions: CFW mice, 20 nanomoles compound i.p. 30 minutes prior to LPS 2 mg/kg, 6 hours; listed as “Hits”.
T1 construct: Swiss Webster (CFW) and NFkB-luciferase reporter mice were obtained from The Jackson Laboratory; tissue The Jackson Laboratory; host or cells: whole live Swiss Webster (CFW) mice
T1 sequence (Q9QUK6 26-835): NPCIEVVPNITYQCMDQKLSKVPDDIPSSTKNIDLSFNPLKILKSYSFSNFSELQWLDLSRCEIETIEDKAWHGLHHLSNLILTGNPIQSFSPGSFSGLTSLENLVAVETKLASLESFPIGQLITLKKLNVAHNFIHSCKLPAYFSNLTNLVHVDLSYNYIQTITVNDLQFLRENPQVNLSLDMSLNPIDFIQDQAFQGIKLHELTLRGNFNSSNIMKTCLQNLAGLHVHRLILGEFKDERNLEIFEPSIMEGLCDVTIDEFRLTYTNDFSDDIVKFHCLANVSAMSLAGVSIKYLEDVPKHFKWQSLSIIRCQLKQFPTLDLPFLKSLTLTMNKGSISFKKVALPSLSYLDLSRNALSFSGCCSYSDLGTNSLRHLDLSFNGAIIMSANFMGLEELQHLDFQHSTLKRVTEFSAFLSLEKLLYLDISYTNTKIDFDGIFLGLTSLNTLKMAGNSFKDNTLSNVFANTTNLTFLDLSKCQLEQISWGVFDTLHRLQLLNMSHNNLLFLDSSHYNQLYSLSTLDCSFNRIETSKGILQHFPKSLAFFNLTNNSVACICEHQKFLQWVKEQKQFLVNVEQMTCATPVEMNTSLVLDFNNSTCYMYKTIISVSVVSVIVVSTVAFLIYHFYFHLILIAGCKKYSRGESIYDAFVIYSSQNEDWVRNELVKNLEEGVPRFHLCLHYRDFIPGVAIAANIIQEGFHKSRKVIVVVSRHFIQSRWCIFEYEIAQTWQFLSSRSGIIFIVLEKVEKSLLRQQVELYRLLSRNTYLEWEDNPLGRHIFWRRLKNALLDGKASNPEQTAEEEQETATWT
T1 sequence (Q9JHF9 19-160): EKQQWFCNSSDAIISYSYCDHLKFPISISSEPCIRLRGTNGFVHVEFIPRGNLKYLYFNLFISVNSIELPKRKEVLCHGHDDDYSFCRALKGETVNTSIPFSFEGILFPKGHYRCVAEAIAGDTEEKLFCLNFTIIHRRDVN
Assay type: in vivo
Method: Compound preparation and delivery. All 65 identified compounds were received in solid form and stored at 4° C. until use. Stock solutions of each compound were made by dissolving the appropriate amount of each compound in dimethyl sulfoxide (DMSO) to yield a concentration of 10 mM. Immediately prior to injection into experimental animals, the compounds were diluted to an experimental concentration of 100 uM in phosphate-buffered saline (PBS). Total concentration of DMSO in the final diluted drug was 1%. Compounds were closely examined to insure that no precipitate formed prior to injection and were stored on ice until injection. All compounds were given via intraperitoneal (i.p.) injection in a total volume of 200 ul using a 1 cc syringe and 27 gauge needle. In all experiments listed below, the compounds were delivered to the experimental mice 30 minutes prior to injection with lipopolysaccharide (LPS) to induce endotoxemia. Control animals not receiving compound received 1% DMSO dissolved in PBS. Following drug injection, the mice were observed closely in their cages for signs of immediate toxicity or adverse reaction to the drug, including but not limited to piloerection, tachypnea, bleeding, abnormal or aggressive behavior, signs of altered mental status, and level of activity.
Induction of endotoxemia. All mice were housed and cared for at the Rangos Research Center, Children's Hospital of Pittsburgh (Pittsburgh, Pa.). All experiments were approved by the Children's Hospital of Pittsburgh Animal Care Committee and by the Institutional Review Board of the University of Pittsburgh. Swiss Webster (CFW) and NFkB-luciferase reporter mice were obtained from The Jackson Laboratory. Throughout the course of all experiments, mice were housed 4 per cage with access to food, water, and standard bedding. Endotoxemia was induced in all experiments by i.p. injection of LPS (Escherichia coli 0111:B4 purified by gel filtration chromatography, >99% pure, Sigma-Aldrich) at a dose of 2 mg/kg for 6 hours. At the end of each experiment, all animals were euthanized by CO2 hypoxia and cervical dislocation.
CFW endotoxemia assay. In order to effectively screen the entire compound list, the remaining compounds (7-60) were screened in a model of endotoxemia using CFW mice. Three separate experiments were performed: First, Compound 7 along with a repeat of compound 4 (n=3 mice per compound, mice age 5 weeks) were tested. Controls were saline injection alone (n=1), LPS 2 mg/kg 6 hrs (n=2). Second, compounds 3, 4, 6, 8-32 were tested (n=1 mouse each, 3 week old mice). Controls were saline injection alone (n=1), LPS 2 mg/kg 6 hrs (n=2), LPS 10 mg/kg 6 hrs (n=2), Bay 11 pretreatment 20 mg/kg for 30 minutes prior to LPS 2 mg/kg 6 hrs. Third, compounds 8, 16, 33-60 were tested (n=1 mouse each, 3 week old mice). Controls were saline injection alone (n=1), LPS 2 mg/kg 6 hrs (n=2), Bay 11 pretreatment 20 mg/kg for 30 minutes prior to LPS 2 mg/kg 6 hrs. Following 6 hours of endotoxemia, mice from the second and third experiments were observed within their cages and videotaped to document behavior and phenotypic differences to assess for an inhibitory effect of compound pretreatment on the effects of LPS. Mice were identified by a number previously placed using permanent marker on their tails. The degree of piloerection, tachypnea, location in the cage (center of cage versus corners), degree of activity, and behavior relative to other animals was observed and documented via video for each mouse.
Less activity, tachypnea, and piloerection are considered symptomatic of endotoxemia, so a decrease in these is consistent with TLR inhibition by the administered compound. Note that compounds listed as negatives may still be T4Ics at other concentrations or conditions.

SMILES	Observation (Compound “Hits”)
CC(=O)N[C@H]1[C@H](OC[C@H]2O[C@@H]3OC(C)(C)O[C@@H]3[C@H]3OC(C)(C)O[C@H]32)O[C@H](CO)[C@@H](O)[C@@H]1O [Compound 21, N-((2R,3R,4R,5S,6R)-4,5-dihydroxy-6-(hydroxymethyl)-2-(((3aR,5R,5aS,8aS,8bR)-2,2,7,7-tetramethyltetrahydro-3aH-bis[1,3]dioxolo[4,5-b:4′,5′-d]pyran-5-yl)methoxy)tetrahydro-2H-pyran-3-yl) acetamide]	More active, crawled over other mice, less piloerection
O=P(O)(O)OCC1OC(OP(=O)(O)O)C(O)[C@H](O)[C@@H]1O (stereo partly drawn) [Compound 8, cyclohexanamine compound with 1,6-di-O-phosphono-beta-D-glycero-hexopyranose (4:1) hydrate]	More mobile, less piloerection
CC(=O)N[C@H]1[C@H](O[C@H]2[C@H](O)[C@@H](O)[C@H](O[C@H]3[C@H](O)[C@@H](CO)OC(O)[C@@H]3NC(C)=O)O[C@@H]2C(=O)O)O[C@H](CO)[C@@H](O)[C@H]1O[C@H]1O[C@H](C(=O)O)[C@@H](O)[C@H](O)[C@H]1O (stereo partly drawn) [Compound 42, 2-(acetylamino)-3-O-{4-O-[2-(acetylamino)-2-deoxy-3-O-alpha-D-xylo-hexopyranuronosyl-beta-D-ribo-hexopyranosyl]-beta-D-xylo-hexopyranuronosyl}-2-deoxy-D-glucopyranose]	Less tachypnea, more mobile
C=CCO[C@@H]1O[C@H](CO)[C@@H](O)[C@H](O)[C@H]1NC(C)=O [Compound 50, allyl 2-(acetylamino)-2-deoxy-beta-D-glycero-hexopyranoside]	More active
CC(=O)NC1C(O)OC(CO)C(OC2OC(C)C(O)C(O)C2O)C1OC1OC(CO)C(O)C(O)C1O (centres unmarked) [Compound 45, 2-(acetylamino)-2-deoxy-4-O-(6-deoxyhexopyranosyl)-3-O-hexopyranosylhexopyranose]	More active, crawled over other mice, less piloerection
CCOC1OC(CO)C(O)C(O)C1NC(C)=O (centres unmarked) [Compound 63, N-[2-ethoxy-4,5-dihydroxy-6-(hydroxymethyl)oxan-3-yl]acetamide]	More mobile, less piloerection
CC(=O)NC1C(O)OC(CO)C(O)C1O [Compound 52, 2-(acetylamino)-2-deoxy-beta-D-glycero-hexopyranose]	More active, less piloerection
CC(=O)CC1OC(OC2C(NC(C)=O)C(O)OC(CO)C2OS(=O)(=O)O)C(O)C(O)C1O [Compound 43, 2-(acetylamino)-2-deoxy-3-O-(6,8-dideoxy-beta-L-glycero-octopyranosyl-7-ulose)-4-O-sulfo-L-erythro-hexopyranose]	More active, crawled over other mice, less piloerection
CCCCCCO[C@@H]1O[C@H](COC(C)=O)[C@@H](OC(C)=O)[C@H](OC(C)=O)[C@H]1NC(C)=O [Compound 36, hexyl 3,4,6-tri-O-acetyl-2-(acetylamino)-2-deoxy-beta-D-glucopyranoside]	More active, crawled over other mice, less piloerection
CCO[C@@H]1O[C@H](COC(C)=O)[C@@H](OC(C)=O)[C@H](OC(C)=O)[C@H]1NC(C)=O [Compound 55, ethyl 3,4,6-tri-O-acetyl-2-(acetylamino)-2-deoxy-beta-D-glycero-hexopyranoside]	Less piloerection, less tachypnea, more active

Same assay, conditions: CFW mice, 20 nanomoles compound i.p. 30 minutes prior to LPS 2 mg/kg, 6 hours; listed as “Negatives”

SMILES	Observation (Compound “Negatives”)
CC(=O)N[C@H]1[C@@H](OP(=O)([O-])OP(=O)([O-])OC[C@H]2O[C@@H](n3ccc(=O)[nH]c3=O)[C@H](O)[C@@H]2O)O[C@H](CO)[C@@H](O)[C@@H]1O.[Na+].[Na+] [Compound 41, Uridine 5′-diphospho-N-acetylglucosamine sodium salt]	Less active, huddled in corner
CC(=O)N[C@H]1[C@H](OC[C@H]2O[C@@H]3OC4(CCCCC4)O[C@@H]3[C@H]3OC4(CCCCC4)O[C@H]32)O[C@H](CO)[C@@H](O)[C@@H]1O [Compound 37, N-[(2R,3R,4R,5S,6R)-2-[(1′S,2′R,6′R,8′R,9′S)-dispiro[cyclohexane-1,4′-[3,5,7,10,12]pentaoxatricyclo[7.3.0.0^{2,6}]dodecane-11′,1″-cyclohexane]-8′-ylmethoxy]-4,5-dihydroxy-6-(hydroxymethyl)oxan-3-yl]acetamide]	More tachypneic, less active
CC(=O)N[C@H]1[C@H](O[C@H]2[C@H](O)[C@@H](NC(C)=O)C(O)O[C@@H]2CO)O[C@H](CO)[C@@H](O[C@@H]2O[C@H](CO)[C@@H](O)[C@H](O)[C@H]2NC(C)=O)[C@@H]1O (stereo partly drawn) [Compound 1, 2-(acetylamino)-4-O-{2-(acetylamino)-4-O-[2-(acetylamino)-2-deoxy-beta-D-glucopyranosyl]-2-deoxy-beta-D-glucopyranosyl}-2-deoxy-D-glucopyranose]	More tachypnea, rigors
CC(=O)N[C@@H]1[C@@H](O)[C@@H](O)[C@@H](CO)O[C@@H]1O [Compound 31, 2-(acetylamino)-2-deoxy-alpha-D-lyxo-hexopyranose]	More tachypneic, more piloerection
CCCCO[C@@H]1O[C@H](CO)[C@@H](OC)[C@H](OC)[C@H]1NC(C)=O [Compound 14, butyl 2-(acetylamino)-2-deoxy-3,4-di-O-methyl-beta-D-glucopyranoside]	Refused to move from corner, very tachpneic
CC(=O)N[C@H]1C(O)O[C@H](CO)[C@@H](O)[C@@H]1O[C@H](C)C(=O)N[C@@H](C)C(=O)N[C@H](CCC(=O)O)C(N)=O (stereo partly drawn) [Compound 40, (4R)-4-((2S)-2-((2R)-2-((3R,4R,5S,6R)-3-acetamido-2,5-dihydroxy-6-(hydroxymethyl)tetrahydro-2H-pyran-4-yloxy)propanamido)propanamido)-5-amino-5-oxopentanoic acid]	Less active, huddled in corner
COC1OC(COC(C)=O)C(OC(C)=O)C(OC(C)=O)C1NC(C)=O (centres unmarked) [Compound 62, (5-acetamido-3,4-diacetyloxy-6-methoxy-oxan-2-yl)methyl acetate]	Nearly static, little movement, rigors
